Data published in patent US12590062B2, “PD-1/PD-L1 inhibitors” (Gilead Sciences, Inc., priority 2017, dated 2026).

How the values were obtained:
[1] = target: T1, PD-L1 (Homo sapiens, UniProt Q9NZQ7); test: PD-L1/PD-L1 dimerization biochemical protein-protein interaction assay (ALPHA); assay type: binding; conditions: compound-induced PD-L1 dimerization, head prints '1 nM' (0.5 nM His-tagged PD-L1 and 0.5 nM FLAG-tagged PD-L1), read-out: AC50 PDL1 Dimer Alpha 1 nM
T1 construct: determine if they can specifically dimerize the extracellular domains of PD-L1
Summary of the method: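 After 2 h at 25 °C with compound, His- and FLAG-tagged PD-L1 ECDs (each 0.5 nM final; 25 mM Hepes pH 7.4, 150 mM NaCl) were detected by sequential anti-His acceptor and anti-FLAG donor bead incubations. Dose-response curves fitted to four-parameter equation for AC50.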

[2] = target: PD-1/PD-L1 (Homo sapiens, UniProt Q9NZQ7); test: PD-1/PD-L1 biochemical protein-protein interaction assay (ALPHA); assay type: binding; conditions: 0.3 nM His tagged PD-L1, 2.5 nM biotinylated Fc-PD-1, 60 minutes at 25° C., read-out: IC50 PD-L1-PD-1 Alpha IC50-mono PD-L1-fcP-D1
Summary of the method: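 His-PD-L1 ECD 0.3 nM + biotin-Fc-PD-1 2.5 nM (final), 25 mM Hepes pH 7.4, 150 mM NaCl, 3.4 mM EDTA; 60 min, 25° C; anti-His acceptor/streptavidin donor ALPHA beads; decreased signal = blocked binding; 4-parameter IC50.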

[3] = target: T2, PD-1/PD-L1 interaction (Homo sapiens, UniProt Q9NZQ7); test: PD-1/PD-L1 NFAT reporter co-culture assay; assay type: cell-based; conditions: Jurkat PD-1 NFAT-luciferase cells co-cultured with aAPC-PD-L1 CHO cells, 6 hrs at 37° C.; read-out: EC50 NFAT Luciferase
T2 construct: expressed in transfected cells; host or cells: CHO cells (aAPC-PD-L1) co-cultured with Jurkat cells overexpressing PD-1 and an NFAT-luciferase reporter
Summary of the method: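 First, CHO cells displaying anti-CD3 antibody and PD-L1 were plated overnight. Next, compound-treated PD-1 Jurkat NFAT-luciferase reporter cells in 2% FBS RPMI were added for 6 h at 37 °C. Finally, ONE-Glo luminescence was read and EC50 values fitted with a four-parameter equation.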

T1 sequence (Q9NZQ7 19-238 limits assumed): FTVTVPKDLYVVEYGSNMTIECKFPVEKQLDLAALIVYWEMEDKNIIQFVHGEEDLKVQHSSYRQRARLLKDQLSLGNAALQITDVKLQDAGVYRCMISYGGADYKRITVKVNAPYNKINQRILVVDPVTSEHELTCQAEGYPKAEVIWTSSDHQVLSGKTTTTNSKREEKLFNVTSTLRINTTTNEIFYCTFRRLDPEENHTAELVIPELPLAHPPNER
T1 sequence (Q9NZQ7 19-238 limits assumed): as above
Sequence of PD-1/PD-L1 (Q9NZQ7 19-238 limits assumed): as above
T2 sequence (Q9NZQ7 19-290): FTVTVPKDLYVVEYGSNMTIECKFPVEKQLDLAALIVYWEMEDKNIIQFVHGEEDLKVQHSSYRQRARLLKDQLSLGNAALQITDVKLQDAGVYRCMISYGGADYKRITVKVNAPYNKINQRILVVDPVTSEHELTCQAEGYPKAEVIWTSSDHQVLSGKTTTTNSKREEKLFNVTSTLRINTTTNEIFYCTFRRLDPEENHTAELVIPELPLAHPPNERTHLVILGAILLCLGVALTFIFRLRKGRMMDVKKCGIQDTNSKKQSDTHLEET

| AC50 [1] [nM] | IC50 [2] [nM] | EC50 [3] [nM] | SMILES |
| --- | --- | --- | --- |
| 67.7 | 0.064 | 39 | COc1nc(O[C@H]2CCc3c(-c4cccc(-c5cnc6c(CN7CC8(CNC(=O)C8)C7)cn(C)c6n5)c4Cl)cccc32)c(Cl)cc1CN1CCC[C@@H](C(=O)O)C1 [Example 524] |
| 34.8 | 0.064 | 27 | COc1nc(O[C@H]2CCc3c(-c4cccc(-c5cnc6c(CN7CC8(CNC(=O)C8)C7)cn(C)c6n5)c4Cl)cccc32)c(Cl)cc1CN1CC[C@@H](C(=O)O)C1 [Example 525] |
| 73.6 | 0.064 | 110 | COc1nc(O[C@H]2CCc3c(-c4cccc(-c5cnc6c(CNC[C@@H]7CCC(=O)N7)cn(C)c6n5)c4Cl)cccc32)c(Cl)cc1CN1CCC[C@@H](C(=O)O)C1 [Example 526] |
| 69.9 | 0.064 | 46 | COc1nc(O[C@H]2CCc3c(-c4cccc(-c5cnc6c(CN7CC8(CNC(=O)C8)C7)cn(C)c6n5)c4Cl)cccc32)c(Cl)cc1CN1CC(C(=O)O)C1 [Example 527] |
| 63.3 | 0.068 | 89 | COc1nc(O[C@H]2CCc3c(-c4cccc(-c5cnc6c(CNC[C@@H]7CCC(=O)N7)cn(C)c6n5)c4Cl)cccc32)c(Cl)cc1CN1CC[C@@H](C(=O)O)C1 [Example 528] |
| 56.2 | 0.064 | 165 | COc1nc(O[C@H]2CCc3c(-c4cccc(-c5cnc6c(CNC[C@@H]7CCC(=O)N7)cn(C)c6n5)c4Cl)cccc32)c(Cl)cc1CN1CC(C(=O)O)C1 [Example 529] |
| 126 | 0.593 | 103 | N#Cc1cncc(COc2nc(OCc3cccc(-c4cccc(-c5ccc(CNC[C@@H]6CCC(=O)N6)cc5)c4Cl)c3Cl)c(Br)cc2CNC[C@@H]2CCC(=O)N2)c1 [Example 540] |
| 70.4 | 0.641 | 93 | COc1cc(-c2cccc(-c3cccc(COc4nc(OCc5cncc(C#N)c5)c(CNC[C@@H]5CCC(=O)N5)cc4Br)c3Cl)c2Cl)ccc1CNC[C@@H]1CCC(=O)N1 [Example 541] |
| 136 | 1.24 | 197 | COc1cc(-c2cccc(-c3cccc(COc4nc(OC)c(CNC[C@@H]5CCC(=O)N5)cc4Br)c3Cl)c2Cl)ccc1CNC[C@@H]1CCC(=O)N1 [Example 542] |
| 49.7 | 0.07 | 187 | COc1nc(-c2cccc(-c3cccc(COc4nc(OCc5cncc(C#N)c5)c(CN5CCCC[C@H]5C(=O)O)cc4Br)c3Cl)c2Cl)ccc1C1=NCCN1 [Example 543] |
| 17.3 | 0.09 | 109 | CS(=O)(=O)c1cncc(COc2nc(OCc3cccc(-c4cccc(-c5ccc6c(c5)C[C@@H](N)C6)c4Cl)c3Cl)c(Br)cc2CN2CCCC[C@H]2C(=O)O)c1 [Example 544] |
| 24.4 | 0.089 | 145 | CC(C)(NCc1cc(Br)c(OCc2cccc(-c3cccc(-c4ccc5c(c4)C[C@@H](N)C5)c3Cl)c2Cl)nc1OCc1cncc(S(C)(=O)=O)c1)C(=O)O [Example 545] |
| 39.2 | 0.515 | 109 | CS(=O)(=O)c1cncc(COc2nc(OCc3cccc(-c4cccc(-c5ccc6c(c5)C[C@@H](N)C6)c4Cl)c3Cl)c(Br)cc2CNC[C@@H](O)CC(=O)O)c1 [Example 546] |
| 20.1 | 0.363 | 51 | C[C@](CO)(NCc1cc(Br)c(OCc2cccc(-c3cccc(-c4ccc5c(c4)C[C@@H](N)C5)c3Cl)c2Cl)nc1OCc1cncc(S(C)(=O)=O)c1)C(=O)O [Example 547] |
| 74.6 | 0.676 | 197 | COc1nc(OCc2cccc(-c3cccc(-c4ccc5c(c4)C[C@@H](N)C5)c3Cl)c2Cl)c(Br)cc1CNC[C@H](O)CC(=O)O [Example 548] |
| 54.6 | 0.355 | 177 | COc1nc(OCc2cccc(-c3cccc(-c4ccc5c(c4)C[C@@H](N)C5)c3Cl)c2Cl)c(Br)cc1CN[C@](C)(CO)C(=O)O [Example 549] |
| 47.7 | 0.134 | 163 | C[C@@](CO)(NCc1cc(Br)c(OCc2cccc(-c3cccc(-c4ccc5c(c4)C[C@@H](N)C5)c3Cl)c2Cl)nc1OCc1cncc(S(C)(=O)=O)c1)C(=O)O [Example 550] |
| 12.4 | 0.064 | 100 | CC(C)(NCc1cc(Br)c(OCc2cccc(-c3cccc(-c4ccc5c(c4)C[C@@H](N)C5)c3Cl)c2Cl)nc1OCc1cncc(C#N)c1)C(=O)O [Example 551] |

| AC50 [1] [nM] | IC50 [2] [nM] | EC50 [3] [nM] | SMILES |
| --- | --- | --- | --- |
| 74.7 | 0.716 | 152 | N#Cc1cncc(COc2nc(OCc3cccc(-c4cccc(-c5ccc6c(c5)C[C@@H](N)C6)c4Cl)c3Cl)c(Br)cc2CNC[C@@H](O)CC(=O)O)c1 [Example 552] |
| 17.7 | 0.101 | 70 | C[C@](CO)(NCc1cc(Br)c(OCc2cccc(-c3cccc(-c4ccc5c(c4)C[C@@H](N)C5)c3Cl)c2Cl)nc1OCc1cncc(C#N)c1)C(=O)O [Example 553] |
| 39.5 | 0.15 | 148 | C[C@@](CO)(NCc1cc(Br)c(OCc2cccc(-c3cccc(-c4ccc5c(c4)C[C@@H](N)C5)c3Cl)c2Cl)nc1OCc1cncc(C#N)c1)C(=O)O [Example 554] |
| 23.1 | 0.396 | 84 | COc1nc(-c2cccc(-c3cccc(COc4nc(OCc5cncc(C#N)c5)c(CNCCO)cc4Br)c3Cl)c2Cl)ccc1C1=NCCN1 [Example 555] |
| 37.7 | 0.194 | 86 | COc1nc(-c2cccc(-c3cccc(COc4nc(OCc5cncc(C#N)c5)c(CNC[C@@H]5CCC(=O)N5)cc4Br)c3Cl)c2Cl)ccc1C1=NCCN1 [Example 556] |
| 137 | 0.201 | 135 | Cc1c(COc2cc(OCc3cncc(C#N)c3)c(CN[C@@](C)(CO)C(=O)O)cc2Cl)cccc1-c1cccc(Nc2nccc3cc(CNCCO)cnc23)c1C [Example 557] |
| 33.6 | 0.065 | 51 | COc1nc(-c2cccc(-c3cccc(COc4nc(OCc5cncc(C#N)c5)c(CNC[C@@H](O)CC(=O)O)cc4Br)c3Cl)c2Cl)ccc1C1=NCCN1 [Example 558] |
| 18.7 | 0.064 | 53 | COc1nc(-c2cccc(-c3cccc(COc4nc(OCc5cncc(C#N)c5)c(CN[C@@](C)(CO)C(=O)O)cc4Br)c3Cl)c2Cl)ccc1C1=NCCN1 [Example 559] |
| 77.8 | 0.135 | 163 | N#Cc1cncc(COc2nc(OCc3cccc(-c4cccc(-c5ccc(OCCNCCO)cc5)c4Cl)c3Cl)c(Cl)cc2CN2C[C@@H](O)C[C@H]2C(=O)O)c1 [Example 560] |
| 193 | 0.531 | 146 | N#Cc1cncc(COc2nc(OCc3cccc(-c4cccc(-c5ccc(OCCNCCO)cc5)c4Cl)c3Cl)c(Cl)cc2CNC[C@@H](O)CC(=O)O)c1 [Example 561] |
| 126 | 0.102 | 162 | COc1nc(OCc2cccc(-c3cccc(COc4nc(OC)c(CNC[C@@H](O)CC(=O)O)cc4Br)c3C#N)c2Cl)c(Br)cc1CNC[C@@H](O)CC(=O)O [Example 562] |
| 73.4 | 0.259 | 112 | N#Cc1cc(C#N)cc(COc2nc(OCc3cccc(-c4cccc(-c5ccc(OCCN6CC7(CCC(=O)N7)C6)cc5)c4Cl)c3Cl)c(Cl)cc2CNC[C@@H](O)CC(=O)O)c1 [Example 565] |
| 39.4 | 0.11 | 86 | C[C@@](CO)(NCc1cc(Cl)c(OCc2cccc(-c3cccc(-c4ccc(OCCN5CC6(CCC(=O)N6)C5)cc4)c3Cl)c2Cl)nc1OCc1cc(C#N)cc(C#N)c1)C(=O)O [Example 566] |
| 68.7 | 0.327 | 85 | N#Cc1cc(C#N)cc(COc2nc(OCc3cccc(-c4cccc(-c5ccc(CN6CC7(CCC(=O)N7)C6)cc5)c4Cl)c3Cl)c(Cl)cc2CNC[C@@H](O)CC(=O)O)c1 [Example 567] |
| 44.3 | 0.064 | 65 | COc1nc(-c2cccc(-c3cccc(COc4nc(OCc5cc(C#N)cc(C#N)c5)c(CNC[C@@H](O)CC(=O)O)cc4Cl)c3Cl)c2Cl)ccc1CNC[C@@H]1CCC(=O)N1 [Example 568] |
| 128 | 0.085 | 74 | Cc1c(COc2cc(OCc3cncc(C#N)c3)c(CNC[C@@H](O)CC(=O)O)cc2Cl)cccc1-c1cccc(-c2ccc3c(CNC[C@@H](O)CC(=O)O)ccnc3c2)c1C [Example 569] |
| 56.5 | 0.092 | 115 | Cc1c(COc2cc(OCc3cncc(C#N)c3)c(CN[C@@](C)(CO)C(=O)O)cc2Cl)cccc1-c1cccc(-c2ccc(CNCCCS(N)(=O)=O)cc2)c1C [Example 570] |
| 156 | 0.091 | 126 | Cc1c(COc2cc(OCc3cncc(C#N)c3)c(CN[C@@](C)(CO)C(=O)O)cc2Cl)cccc1-c1cccc(-c2ccc(CNCCS(C)(=O)=O)cc2)c1C [Example 571] |
